{
  "source": "patent US4117145A",
  "about": "“1-Substituted pyrazoles” (Bayer Aktiengesellschaft, priority 1975, dated 1978)",
  "test_system": "thromb formation (left jugular vein, rats)",
  "experiment": "Antithrombotic action: thromb formation in supercooled left jugular vein of rats, thromb weighed 4 hours later",
  "type": "in vivo, rat",
  "protocol": "The left jugular vein of rats weighing 170 to 180 g was exposed under ether narcosis and supercooled to -12° C for 2 minutes to stimulate thromb formation. The thromb was isolated from the vein 4 hours later, and was weighed. The test animals were given the test preparation in tragacanth mucilage immediately before supercooling the wall of the blood vessel. As a result, the protective antithrombotic activity was tested in the first 4 hours after stimulating thromb formation.",
  "data": [
    {"smiles": "Cc1cc(OC(=O)c2ccco2)n(CCOc2ccc3ccccc3c2)n1", "note": "[Example 20, 5-(Furyl-(2)-carbonyloxy)-3-methyl-1-(2-(β-naphthyloxy)-ethyl)-pyrazole]", "values": [
      {"measurement": "reduction of size of the thrombs", "setting": "after a 4 hour period of action", "result": 61, "unit": "%"},
      {"measurement": "Thromb size, mean value", "setting": "rats, 10 mg/kg, administered orally immediately before supercooling, thromb isolated 4 hours later, 12 experiments, control 115 ± 12 (14 experiments)", "result": "45 ± 10", "unit": "µg"},
      {"measurement": "Inhibition in %", "setting": "rats, 10 mg/kg, administered orally, versus control animals without active compound", "result": 61, "unit": "%"}
    ]}
  ]
}
